According to PubChem BioAssay (NCI):
Where “and” joins values, the source holds several entries; their conditions need not be identical. Equal values may be shown once.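 Exposure lasted 48 hours, with cells grown in 96-well plates and compounds tested at five concentrations. At the GI50, growth is halved. The concentration for full growth arrest is given as TGI.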

Legend:
Experiment in all cases: NCI-60 cell line screen, 48 h
[1] = test system: HOP-62 NSCLC
[2] = test system: T-47D breast
[3] = test system: OVCAR-5 ovarian
[4] = test system: MALME-3M melanoma
[5] = test system: UO-31 renal
[6] = test system: NCI-H460 lung
[7] = test system: M14 melanoma
[8] = test system: EKVX NSCLC
[9] = test system: SF-295 CNS
[10] = test system: HS 578T breast

c1cc2c(cn1)Nc1ccncc1S2
GI50 [1]: 14.9 µM | TGI [1]: 57.4 µM | GI50 [2]: 34.8 µM | TGI [2]: > 100 µM | GI50 [3]: 25.2 µM | TGI [3]: > 100 µM | GI50 [4]: > 100 µM | TGI [4]: > 100 µM | GI50 [5]: 23.5 µM | TGI [5]: > 100 µM | GI50 [6]: 27.8 µM | TGI [6]: > 100 µM | GI50 [7]: 32.6 µM | TGI [7]: > 100 µM | GI50 [8]: 55.8 µM | TGI [8]: > 100 µM | GI50 [9]: 52.7 µM | TGI [9]: > 100 µM | GI50 [10]: 29.6 µM | TGI [10]: > 100 µM

CC1=C(C(=O)Nc2ccc(Cl)c(C(=O)OC(C)C)c2)SCCO1
TGI [1]: > 100 µM | TGI [2]: > 100 µM | TGI [3]: 75.3 µM | TGI [4]: 92.2 µM | TGI [5]: 73 µM | TGI [6]: 99.6 µM | TGI [7]: > 100 µM | TGI [8]: > 95.5 µM | TGI [9]: > 80.7 µM | TGI [10]: 73.9 µM

Cc1cc([N+](=O)[O-])c2ccccc2[n+]1[O-]
GI50 [1]: 0.188 µM and 0.25 µM | TGI [1]: 0.835 µM and 1.13 µM | GI50 [2]: 0.385 µM and 0.534 µM | TGI [2]: 3.23 µM and 4.89 µM | GI50 [3]: 2.02 µM and 2.26 µM | TGI [3]: 7.21 µM and 7.12 µM | GI50 [4]: 1.39 µM and 2.17 µM | TGI [4]: 3.07 µM and 4.34 µM | GI50 [5]: 0.215 µM and 0.22 µM | TGI [5]: 0.681 µM and 0.903 µM | GI50 [6]: 0.0307 µM and 0.0282 µM | TGI [6]: 0.129 µM and 0.109 µM | GI50 [7]: 0.239 µM and 0.259 µM | TGI [7]: 1.08 µM and 1.11 µM | GI50 [8]: 2.77 µM | TGI [8]: 12 µM | GI50 [9]: 0.206 µM and 0.236 µM | TGI [9]: 0.76 µM and 2 µM | GI50 [10]: 1.18 µM and 0.989 µM | TGI [10]: 5.74 µM and 4.8 µM

COc1cccc(/C=C2\COc3ccc(-c4ccccc4)cc3C2=O)c1
GI50 [1]: 3.91 µM | TGI [1]: 9.58 µM | GI50 [2]: 2.03 µM | TGI [2]: 4.98 µM | GI50 [3]: 3.67 µM | TGI [3]: 13.2 µM | GI50 [4]: 2.53 µM | TGI [4]: 12.6 µM | GI50 [5]: 2.98 µM | TGI [5]: 9.12 µM | GI50 [6]: 1.74 µM | TGI [6]: 3.78 µM | GI50 [7]: 3.87 µM | TGI [7]: 14.9 µM | GI50 [8]: 4.8 µM | TGI [8]: > 100 µM | GI50 [9]: 2.52 µM | TGI [9]: 10.3 µM | GI50 [10]: 2.76 µM | TGI [10]: 6.61 µM

NC(=S)c1c(N)n(C2OC(CO)C(O)C2O)c2ncnc(N)c12 (configuration not stated)
GI50 [1]: 0.21 µM | TGI [1]: 0.904 µM | GI50 [2]: 0.238 µM | TGI [2]: 1.17 µM | GI50 [3]: 0.342 µM | TGI [3]: 2.92 µM | GI50 [4]: 0.426 µM | TGI [4]: 2.23 µM | GI50 [5]: 0.27 µM | TGI [5]: 2.33 µM | GI50 [6]: 0.2 µM | GI50 [7]: 0.178 µM | TGI [7]: 0.648 µM | GI50 [8]: 0.345 µM | TGI [8]: 11 µM | GI50 [9]: 0.659 µM | TGI [9]: > 27.1 µM | GI50 [10]: 0.223 µM | TGI [10]: 0.648 µM

CCOC(=O)c1cnc2c(C)cccc2c1Nc1ccc(C(C)=O)cc1
GI50 [1]: 39.7 µM | TGI [1]: > 100 µM | GI50 [2]: 8.2 µM | TGI [2]: 44.9 µM | GI50 [3]: 34.6 µM | TGI [3]: > 100 µM | GI50 [4]: 28.7 µM | TGI [4]: > 100 µM | GI50 [5]: 13.5 µM | TGI [5]: > 100 µM | GI50 [6]: 59.3 µM | TGI [6]: > 100 µM | GI50 [7]: 77.8 µM | TGI [7]: > 100 µM | GI50 [9]: 36.2 µM | TGI [9]: > 100 µM | GI50 [10]: 15.4 µM | TGI [10]: 58.4 µM

CN1C(=O)C2(c3ccccc31)N(c1ccc(Cl)cc1)C(=O)C2(c1ccccc1)c1ccccc1 (configuration not stated)
GI50 [1]: > 100 µM | TGI [1]: > 100 µM | GI50 [2]: 6.29 µM | TGI [2]: > 100 µM | GI50 [3]: > 100 µM | TGI [3]: > 100 µM | GI50 [4]: 50.8 µM | TGI [4]: > 100 µM | GI50 [5]: 27.9 µM | TGI [5]: > 100 µM | GI50 [6]: 52.2 µM | TGI [6]: > 100 µM | GI50 [7]: 45.3 µM | TGI [7]: > 100 µM | GI50 [8]: 53.3 µM | TGI [8]: > 100 µM | GI50 [9]: 11 µM | TGI [9]: > 100 µM | GI50 [10]: 21.4 µM | TGI [10]: > 100 µM
